Data: PubChem BioAssay AID488890 (Southern Research Specialized Biocontainment Screening …, 2010)
Results filed as inconclusive are left out. Active and inactive are the calls of the source. The rule behind the calls is not given here.

System: Mycobacterium tuberculosis non-replicating, growth inhibition
Experiment: growth inhibition of non-replicating M. tuberculosis (AID 488890)

| SMILES | IC50 |
| --- | --- |
| O=C(N/N=C/c1coc2ccccc2c1=O)c1ccc(Cl)cc1 | 0.97 µM |
| COc1ccc(C(=O)N/N=C(\c2ccccc2)c2ccccn2)cc1 | 3.27 µM |
| OC(C#CCN1CCOCC1)c1cccs1 (stereo not given) | 7.53 µM |
| O=Cc1coc2ccc3ccccc3c2c1=O | 16.3 µM (inactive) |
| COc1cc(OC)cc(-c2nc3ccccc3c(=O)o2)c1 | 2.33 µM |
| CC(=O)OCCN(C)c1cc(SC(C)C)c2nonc2c1[N+](=O)[O-] | 13.7 µM (inactive) |
| c1ccc(-c2nc3ccccn3c2NC2CCCC2)nc1 | 24.9 µM (inactive) |
| CCn1c(NC(=O)C2CCCCC2)nc2ccccc21 | 4.53 µM |
| Cn1c(SCCOc2cccc(Cl)c2)nnc1-c1ccncc1 | 11.4 µM (inactive) |
| CCCn1nnnc1NCc1ccc(CC)cc1 | 8.41 µM |
| CN1CCc2c(sc(NC(=O)c3ccc([N+](=O)[O-])o3)c2C(N)=O)C1 | 8.37 µM |
| O=C(OCn1nnc2ccccc2c1=O)c1ccc(Br)o1 | 11.6 µM (inactive) |
| O=[N+]([O-])c1ccc(CSc2nnc(-c3cccnc3)o2)cc1 | 0.81 µM |
| COc1ccc2cc(C(=O)C3CCCN(Cc4ccccn4)C3)ccc2c1 (stereo not given) | 6.59 µM |
| Cc1ccc(CC(=O)Nc2ccc(Cl)cn2)cc1 | 1.06 µM |
| O=C(NCc1cccs1)c1ccc([N+](=O)[O-])cc1 | 2.84 µM |
| Cc1cccc(OCC(=O)NNC(=O)c2cc3ccccc3oc2=O)c1 | 6.13 µM |
| CN(C)CCC(=O)N1c2ccccc2Sc2ccc(C(F)(F)F)cc21 | 17.9 µM (inactive) |
| O=C1NCC(O)=C1C=Nc1ccccc1O | 6.37 µM |
| CCCCN(CC)CCNC(=O)c1cc2c(-c3ccc(Cl)cc3)nn(C)c2s1 | 8.57 µM |

| SMILES | IC50 |
| --- | --- |
| Cc1ccc(NC(=O)CN(C)CC(=O)Nc2ccc(F)c(Cl)c2)cc1 | 26.5 µM (inactive) |
| O=C(Nc1cccc2ccccc12)c1ccc([N+](=O)[O-])o1 | 2.11 µM |
| CCCC(O)(CCC)C(=O)NNc1ccc(C)cc1 | 5.94 µM |
| O=C(NCC1CCCCC1)c1ccc([N+](=O)[O-])cc1 | 0.61 µM |
| CCCN1C(=O)SC(CC(=O)Nc2ccccc2)C1=O (stereo not given) | 17.5 µM (inactive) |
| Cc1noc2ncnc(Sc3ccc(Cl)cc3)c12 | 10.9 µM (inactive) |
| CCCCNC(=O)Cc1ccc(C)cc1 | 5.46 µM |
| O=C(Oc1ccc(/C=N/O)cc1)c1ccccc1Cl | 12.4 µM (inactive) |
| O=C(NC(=S)N1CCc2ccccc21)c1ccccc1 | 11.6 µM (inactive) |
| C(=C\c1ccccc1)/CSc1nc2ncccc2[nH]1 | 4.36 µM |
| CCc1cc2c3c(c1)C(C)CC(C)(C)N3C(=O)/C2=C1\SC(=O)NC1=O (stereo not given) | 21.5 µM (inactive) |
| Cc1cc(N2CCN(c3ccccc3)CC2)nc(-n2nc(C)cc2C)n1 | 6.28 µM |
| CC(C)(C)C(=O)COc1ccccc1[N+](=O)[O-] | 17.6 µM (inactive) |
| COc1ccc(C(=O)OCn2nnc3ccccc3c2=O)cc1[N+](=O)[O-] | 15.8 µM (inactive) |
| N#CC1=C(N)Oc2c(ccc3cccnc23)C1c1ccccc1 (stereo not given) | 33.9 µM (inactive) |
| O=C1c2cccc3cc([N+](=O)[O-])cc(c23)C(=O)N1c1ccccc1O | 15.1 µM (inactive) |
| CC(C)(C)NCC1(CO)SC(N)=NC1=O (stereo not given) | 15.5 µM (inactive) |
| COc1ccccc1-n1c(=O)oc2ccc(Cl)cc2c1=O | 12 µM (inactive) |
| CCC1(O)CC(c2ccccc2)=NN1C(=O)c1ccccc1F (stereo not given) | 3.45 µM |
| COc1ccccc1-c1nnc(-c2ccc(C)cc2)o1 | 6.42 µM |

| SMILES | IC50 |
| --- | --- |
| NC(=O)N=Nc1c2[nH]c3ccccc3nc-2c2ccccc12 | 9.06 µM |
| COc1ccc(CCNc2nc(-c3ccccn3)cs2)cc1OC | 8.4 µM |
| Cc1cccc(NC(=O)COC(=O)CCc2c[nH]c3ccccc23)c1C | 6.12 µM |
| O=C1c2cccc3c([N+](=O)[O-])ccc(c23)C(=O)N1c1ccccn1 | 4.86 µM |
| Nn1c(SCCOc2ccc(Cl)cc2)nnc1-c1cccnc1 | 23.5 µM (inactive) |
| O=C(Nc1nnc(COc2ccc(Cl)cc2)s1)c1ccco1 | 21.4 µM (inactive) |
| O=C(Nc1ncc(Cc2ccccc2)s1)C1=NCCN1 | 9.49 µM |
| Fc1ccc(N2CCN(Cc3nnc(-c4ccccc4)o3)CC2)cc1 | 18.9 µM (inactive) |
| O=[N+]([O-])c1ccc(CN2CCN(c3ccc(F)cc3)CC2)o1 | 0.45 µM |
| O=C(CCN1CCOCC1)c1ccc(Br)cc1 | 3.83 µM |
| CCOC(=O)COc1ccc(/C=C2\NC(=S)N(CC)C2=O)cc1 | 7.01 µM |
| Cc1cc(C(=O)NNc2ccc(Cl)cc2)no1 | 1.61 µM |
| O=C(Nc1cccnc1)c1cc(Cl)ccc1Cl | 18.8 µM (inactive) |
| O=c1c2cc(Br)ccc2nc(-c2cccc(C(F)(F)F)c2)n1O | 0.43 µM |
| O=C(Nc1cc(C(F)(F)F)ccc1-n1cncn1)c1ccc([N+](=O)[O-])o1 | 17.9 µM (inactive) |
| CCCCN(C)S(=O)(=O)c1ccc(C(=O)Nc2nnc(-c3ccco3)o2)cc1 | 23 µM (inactive) |
| O=C(Nc1nccs1)c1cc2cc(Cl)ccc2oc1=O | 3.23 µM |
| Cc1ccccc1N1CCN(Cc2ccc([N+](=O)[O-])o2)CC1 | 3.25 µM |
| Cc1cccc(NC(=O)c2cc3ccccc3oc2=O)c1 | 10.5 µM (inactive) |
| O=C1c2cccc3c([N+](=O)[O-])ccc(c23)C(=O)N1c1ccc(Cl)cn1 | 0.69 µM |
